# Results as given in US12540131B2 (Merck Sharp & Dohme LLC, priority 2019, dated 2026).
# Molecular target: GST tagged truncated human mutant G2019S LRRK2 (Homo sapiens (Human), UniProt Q5S007, G2019S)
# Assay: LRRK2 Km ATP LanthaScreen Assay
# Assay type: biochemical
# Conditions: G2019S LRRK2, 134 μM ATP (Km ATP), mean values
# Outline: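 Enzyme (GST-tagged, truncated) was preincubated with compound for 15 min at RT in 50 mM Tris pH 8.5, 10 mM MgCl2, 0.01% Brij-35, 1 mM EGTA, 2 mM DTT and 0.05 mM orthovanadate. Fluorescein-LRRKtide and 134 μM ATP (Km) were then added for 90 min. EDTA and Tb-anti-pERM antibody stopped the reaction; the TR-FRET 520/495 ratio gave 4-parameter IC50s, reported as mean pIC50.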
# Sequence of GST tagged truncated human mutant G2019S LRRK2 (Q5S007 970-2527 G2019S): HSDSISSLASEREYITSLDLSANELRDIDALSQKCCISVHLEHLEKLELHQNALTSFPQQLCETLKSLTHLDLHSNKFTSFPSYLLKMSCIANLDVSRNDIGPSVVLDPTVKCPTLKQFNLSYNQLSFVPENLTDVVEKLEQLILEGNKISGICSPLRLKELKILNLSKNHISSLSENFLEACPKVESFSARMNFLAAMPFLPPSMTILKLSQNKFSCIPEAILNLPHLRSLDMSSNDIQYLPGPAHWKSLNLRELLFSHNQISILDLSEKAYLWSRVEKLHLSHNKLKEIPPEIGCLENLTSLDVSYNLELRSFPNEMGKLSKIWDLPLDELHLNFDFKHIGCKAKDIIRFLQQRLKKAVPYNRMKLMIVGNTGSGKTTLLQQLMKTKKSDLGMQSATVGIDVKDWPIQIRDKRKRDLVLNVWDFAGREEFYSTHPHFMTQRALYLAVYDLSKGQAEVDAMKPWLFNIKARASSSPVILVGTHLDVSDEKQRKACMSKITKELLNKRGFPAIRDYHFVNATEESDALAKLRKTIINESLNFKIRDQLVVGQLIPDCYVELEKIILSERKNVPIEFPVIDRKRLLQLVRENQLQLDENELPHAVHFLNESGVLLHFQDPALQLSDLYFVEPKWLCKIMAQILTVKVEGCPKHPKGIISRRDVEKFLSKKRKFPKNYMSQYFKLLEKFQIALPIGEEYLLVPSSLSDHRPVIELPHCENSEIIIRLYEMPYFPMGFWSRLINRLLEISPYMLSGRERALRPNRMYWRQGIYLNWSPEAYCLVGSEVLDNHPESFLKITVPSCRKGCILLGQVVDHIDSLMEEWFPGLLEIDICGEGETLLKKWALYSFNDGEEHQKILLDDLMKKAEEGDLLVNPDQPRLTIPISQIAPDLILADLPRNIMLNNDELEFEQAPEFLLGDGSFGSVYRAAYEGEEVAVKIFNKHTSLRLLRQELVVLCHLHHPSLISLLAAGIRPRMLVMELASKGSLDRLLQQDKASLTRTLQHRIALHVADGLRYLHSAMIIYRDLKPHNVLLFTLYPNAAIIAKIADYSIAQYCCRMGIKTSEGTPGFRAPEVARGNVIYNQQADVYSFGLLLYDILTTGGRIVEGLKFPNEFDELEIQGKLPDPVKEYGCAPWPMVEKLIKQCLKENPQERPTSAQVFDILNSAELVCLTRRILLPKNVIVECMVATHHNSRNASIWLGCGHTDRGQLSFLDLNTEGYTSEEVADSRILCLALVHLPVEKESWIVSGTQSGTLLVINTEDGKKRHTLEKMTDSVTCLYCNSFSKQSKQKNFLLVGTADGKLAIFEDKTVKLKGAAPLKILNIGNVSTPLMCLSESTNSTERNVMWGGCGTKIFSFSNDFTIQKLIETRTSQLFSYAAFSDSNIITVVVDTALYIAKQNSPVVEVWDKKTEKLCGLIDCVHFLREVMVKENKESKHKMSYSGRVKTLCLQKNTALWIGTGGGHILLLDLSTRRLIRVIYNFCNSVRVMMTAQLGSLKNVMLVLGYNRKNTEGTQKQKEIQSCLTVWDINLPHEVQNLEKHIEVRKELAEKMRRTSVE
row,Compound,LRRK2 pIC50
1,"COC12CC(n3ncc(Nc4ncc5cc(Cl)c([C@@H]6CCN([C@@H]7COC[C@@H]7O)C[C@H]6F)cc5n4)c3Cl)(C1)C2 (single isomer, unassigned) [Ex-4.262, (3S,4S)(3S,4S) or (3S,4S)(3R,4R) or (3R,4R)(3S,4S) or (3R,4R)(3R,4R) 4-(4-(6-chloro-2-((5-chloro-1-(3-methoxybicyclo[1.1.1]pentan-1-yl)-1H-pyrazol-4-yl)amino)quinazolin-7-yl)-3-fluoropiperidin-1-yl)tetrahydrofuran-3-ol]",9.19
2,"Cc1cc2cnc(Nc3cnn(C45CC(F)(C4)C5)c3Cl)nc2cc1[C@@H]1CCN([C@@H]2COC[C@@H]2O)C[C@H]1F (single isomer, unassigned) [Ex-4.232, (3S,4S)(3S,4S) or (3S,4S)(3R,4R) or (3R,4R)(3S,4S) or (3R,4R)(3R,4R) 4-[4-(2-{[5-chloro-1-(3-fluorobicyclo[1.1.1]pentan-1-yl)-1H-pyrazol-4-yl]amino}-6-methylquinazolin-7-yl)-3-fluoropiperidin-1-yl]oxolan-3-ol]",>9.20
3,"C[C@@]1(N2CCC(c3cc4nc(Nc5ccnn5C5CC5(F)F)ncc4cc3Cl)CC2)COC[C@@H]1O (single isomer, unassigned) [Ex-2.84, (S)(3S,4S) or (S)(3R,4R) or (R)(3S,4S) or (R)(3R,4R) 4-[4-(6-chloro-2-{[1-(2,2-difluorocyclopropyl)-1H-pyrazol-5-yl]amino}quinazolin-7-yl)piperidin-1-yl]-4-methyloxolan-3-ol]",8.80
4,"CC1(Cn2ncc(Nc3ncc4cc(Cl)c([C@H]5CCN(C6COC6)C[C@@H]5F)cc4n3)c2Cl)COC1 (single isomer, unassigned) [Ex-2.12, (3S,4S) or (3R,4R) 6-chloro-N-{5-chloro-1-[(3-methyloxetan-3-yl)methyl]-1H-pyrazol-4-yl}-7-[3-fluoro-1-(oxetan-3-yl)piperidin-4-yl]quinazolin-2-amine]",>9.20
5,"Cc1c(Nc2ncc3cc(Cl)c(C4CCN([C@@H]5COC[C@@H]5O)CC4)cc3n2)cnn1C(C)(C)C#N (single isomer, unassigned) [Ex-2.74, (3S,4S) or (3R,4R) 2-[4-({6-chloro-7-[1-(4-hydroxyoxolan-3-yl)piperidin-4-yl]quinazolin-2-yl}amino)-5-methyl-1H-pyrazol-1-yl]-2-methylpropanenitrile]",>9.20
6,"Cc1c(Nc2ncc3cc(Cl)c([C@H]4CCN(C5COC5)C[C@@H]4F)cc3n2)cnn1CC(C)(C)O (single isomer, unassigned) [Ex-4.64, (3S,4S) or (3R,4R) 1-[4-({6-chloro-7-[3-fluoro-1-(oxetan-3-yl)piperidin-4-yl]quinazolin-2-yl}amino)-5-methyl-1H-pyrazol-1-yl]-2-methylpropan-2-ol]",8.85
7,"O[C@H]1COC[C@H]1N1CCC(c2cc3nc(Nc4cnn(C56CC(C5)C6)c4)ncc3cc2Cl)CC1 (single isomer, unassigned) [Ex-4.151, (3S,4S) or (3R,4R) 4-[4-(2-{[1-(bicyclo[1.1.1]pentan-1-yl)-1H-pyrazol-4-yl]amino}-6-chloroquinazolin-7-yl)piperidin-1-yl]oxolan-3-ol]",8.98
8,"Cc1cc2cnc(Nc3cnn(C4CC4(F)F)c3Cl)nc2cc1[C@H]1CCN(C2COC[C@H]2O)C[C@@H]1F (single isomer, unassigned) [Ex-4.140, (R)(3S,4S)(3S,4S) or (R)(3S,4S)(3R,4R) or (R)(3R,4R)(3S,4S) or (R)(3R,4R)(3R,4R) or (S)(3S,4S)(3S,4S) or (S)(3S,4S)(3R,4R) or (S)(3R,4R)(3S,4S) or (S)(3R,4R)(3R,4R) 4-[4-(2-{[5-chloro-1-(2,2-difluorocyclopropyl)-1H-pyrazol-4-yl]amino}-6-methylquinazolin-7-yl)-3-fluoropiperidin-1-yl]oxolan-3-ol]",9.19
9,"Cc1cc2cnc(Nc3cnn(C4CC4)c3Cl)nc2cc1C1CCN(C2COCC2O)CC1 (single isomer, unassigned) [Ex-2.4, (3S,4S) or (3R,4R)-(4-(4-(2-((5-chloro-1-cyclopropyl-1H-pyrazol-4-yl)amino)-6-methylquinazolin-7-yl)piperidin-1-yl)tetrahydrofuran-3-ol]",>9.20
10,"Cc1nn(CC(C)(C)O)cc1Nc1ncc2cc(Cl)c(C3CCN(C4COC4)CC3)cc2n1 [Ex-2.61, 1-[4-({6-chloro-7-[1-(oxetan-3-yl)piperidin-4-yl]quinazolin-2-yl}amino)-3-methyl-1H-pyrazol-1-yl]-2-methylpropan-2-ol]",8.66
11,"Cc1c(Nc2ncc3cc(Cl)c(C4CCN(C(=O)[C@H](C)O)C4)cc3n2)cnn1C1CC1 (single isomer, unassigned) [Ex-4.190, (2S)(3S) or (2S)(3R) 1-(3-{6-chloro-2-[(1-cyclopropyl-5-methyl-1H-pyrazol-4-yl)amino]quinazolin-7-yl}pyrrolidin-1-yl)-2-hydroxypropan-1-one]",8.73
12,"N#Cc1cc2cnc(Nc3cnn(C4CC4)c3Cl)nc2cc1[C@H]1CCN(C2COC2)C[C@@H]1F (single isomer, unassigned) [Ex-6.2, (3R,4R) or (3S,4S) 2-((5-chloro-1-cyclopropyl-1H-pyrazol-4-yl)amino)-7-(3-fluoro-1-(oxetan-3-yl)piperidin-4-yl)quinazoline-6-carbonitrile]",>9.20
13,"Cn1nc(C(C)(C)C)cc1Nc1ncc2cc(Cl)c(C3CCN([C@]4(C)COC[C@@H]4O)CC3)cc2n1 (single isomer, unassigned) [Ex-2.83, (3S,4S) or (3R,4R) 4-(4-{2-[(3-tert-butyl-1-methyl-1H-pyrazol-5-yl)amino]-6-chloroquinazolin-7-yl}piperidin-1-yl)-4-methyloxolan-3-ol]",8.71

# Same assay, conditions: G2019S LRRK2, 134 μM ATP (Km ATP), mean values; read-out: LRRK2 pIC50 (converted)
row,Compound,IC50
1,"Cc1c(Nc2ncc3cc(Cl)c(C4CCN(CC(O)CN5CCOCC5)CC4)cc3n2)cnn1C1CC1 (single isomer, unassigned) [Ex-4.227, (S) or (R) 1-(4-{6-chloro-2-[(1-cyclopropyl-5-methyl-1H-pyrazol-4-yl)amino]quinazolin-7-yl}piperidin-1-yl)-3-(morpholin-4-yl)propan-2-ol]",< 631 pM
2,"CC1(n2ncc(Nc3ncc4cc(Cl)c(C5CCN(C6COC6)C5)cc4n3)c2Cl)CC1 (single isomer, unassigned) [Ex-4.25, (S) or (R) 6-chloro-N-[5-chloro-1-(1-methylcyclopropyl)-1H-pyrazol-4-yl]-7-[1-(oxetan-3-yl)pyrrolidin-3-yl]quinazolin-2-amine]",3090 pM
3,"Clc1cc2cnc(Nc3cnn(C4CC4)c3Cl)nc2cc1C1CCN(C2COC3(CCC3)C2)CC1 (single isomer, unassigned) [Ex-4.115, (R) or (S) 7-(1-(5-oxaspiro[3.4]octan-7-yl)piperidin-4-yl)-6-chloro-N-(5-chloro-1-cyclopropyl-1H-pyrazol-4-yl)quinazolin-2-amine]",851 pM
